Measurements taken from US11136320B2, “Fused ring derivative used as FGFR4 inhibitor” (JACOBIO PHARMACEUTICALS CO., LTD., priority 2019, dated 2021).

How the values were obtained:
[1] = PK analysis of rats; assay type: in vivo; details: SD rats, p.o. (10 mg/kg); for AUC(0-t) / Cmax: rat, plasma, po; for AUC(0-t): read-out: Curve area AUC0-24 h; for Cmax: read-out: Drug concentration in blood Cmax
Description: In the present invention, the pharmacokinetics experiment of the compounds in rats was performed using the SD rats (Vitolihua).
(1) Mode of administration: single gavage administration and intravenous injection administration.
(2) Dosage: 10 mg/kg in the gavage administration, 3 mg/kg in the intravenous injection administration.
Gavage administration: before administration, 15 min, 30 min, 1 h, 2 h, 4 h, 6 h, 8 h, 24 h; […]
(4) Sample processing: 200 μL of orbital blood was collected at each sampling time point. After anticoagulation with heparin, the blood was centrifuged at 5500 rpm for 10 min, and 60 μL of the supernatant was taken and put into the refrigerator at −80° C. for waiting for testing.
Samples obtained after administration of Compound 1 were tested using 4000 LC-MS/MS analyzer, wherein, the chromatographic separation conditions for testing were:
Samples obtained after administration of Compound 7 were tested using 4000 LC-MS/MS analyzer, wherein, the chromatographic separation conditions for testing were:
Samples obtained after administration of Compound 16 were tested using 4000 LC-MS/MS analyzer, wherein, the chromatographic separation conditions for testing were: […]

[2] = molecular target: T1, FGFR4 kinase (Homo sapiens (Human), UniProt P22455); experiment: biochemical
T1 sequence (P22455 22-802): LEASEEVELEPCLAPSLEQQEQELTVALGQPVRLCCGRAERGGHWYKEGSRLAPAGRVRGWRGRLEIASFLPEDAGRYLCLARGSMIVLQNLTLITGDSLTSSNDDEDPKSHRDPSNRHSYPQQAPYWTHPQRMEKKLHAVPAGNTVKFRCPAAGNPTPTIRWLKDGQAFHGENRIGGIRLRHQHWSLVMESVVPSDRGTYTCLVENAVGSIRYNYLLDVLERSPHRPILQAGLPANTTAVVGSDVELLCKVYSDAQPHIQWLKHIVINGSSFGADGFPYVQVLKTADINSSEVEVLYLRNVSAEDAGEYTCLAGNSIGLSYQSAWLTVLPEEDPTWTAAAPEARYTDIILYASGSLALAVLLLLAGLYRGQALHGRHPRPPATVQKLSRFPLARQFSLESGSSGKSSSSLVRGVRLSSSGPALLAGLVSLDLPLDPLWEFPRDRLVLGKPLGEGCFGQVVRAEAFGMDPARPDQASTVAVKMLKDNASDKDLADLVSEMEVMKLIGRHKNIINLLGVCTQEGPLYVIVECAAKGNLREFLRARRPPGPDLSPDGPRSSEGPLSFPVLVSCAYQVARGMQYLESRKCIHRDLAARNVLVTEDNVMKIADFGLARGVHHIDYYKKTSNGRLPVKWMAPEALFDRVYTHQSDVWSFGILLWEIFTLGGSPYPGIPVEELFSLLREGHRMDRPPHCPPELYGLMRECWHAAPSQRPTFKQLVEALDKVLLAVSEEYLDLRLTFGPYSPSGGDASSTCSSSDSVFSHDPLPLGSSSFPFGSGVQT

[3] = molecular target: T1, FGFR4 kinase
[4] = system: Hepatoma cell Hep3B (high expression of FGFR4 and FGF19); experiment: Hepatoma cell proliferation inhibition experiment (MTS method); assay type: cell-based; details: for IC50: Homo sapiens, Hep3B, 120 h incubation, read-out: Hep3B(IC50 μM)
Text: In this experiment, the MTS method was used to test the inhibitory effect of the compounds on the proliferation of Hepatoma cell Hep3B (high expression of FGFR4 and FGF19), and the half inhibitory concentration IC50 of the compounds to Hep3B was obtained. The Hep3B cell line was purchased from ATCC, and the complete culture medium of the Hep3B cell line was MEM+10% FBS+1% PS. MEM cell culture medium, fetal bovine serum, and trypsin were purchased from Gibco, cell culture flasks were purchased from Greiner, and disposable Cell Counting Plate and Taittinger Blue Solution were purchased from Bio-Rad.
(1) 100 μl Hepatoma cell Hep3B suspension was seeded in a 96-well cell culture plate, and the density of each well was 2.0×10^4 cells/ml.
(3) A mixture of MTS (3-(4,5-dimethylthiazol-2-yl)-5-(3-carboxymethoxyphenyl)-2-(4-sulfophenyl)-2H-tetrazolium)/PMS (phenazine methosulfate) was added into each well for coloration, and MTS/PMS in the mixture was at a ratio of 20:1 (ml:ml). 30 μl of the mixture was added into each well of the culture plate above mentioned in step (2), then the culture plate was incubated for 3 h in the incubator.
(5) The inhibition rate was calculated by the […];
(6) According to the inhibition rate of the different concentrations, the IC50 values of the compounds were obtained by curve fitting.

**Q.** With `CN1CCN(Cc2cc3c(nc2C=O)N(C(=O)Nc2cc(NC4CCSC4)c(C#N)cn2)CCC3)C(=O)C1` (stereo not drawn) [Compound 5, N-(5-cyano-4-((tetrahydrothiophene-3-yl)amino)pyridin-2-yl)-7-formyl-6-((4-methyl-2-oxopiperazin-1-yl)methyl)-3,4-dihydro-1,8-naphthyridine-1 (2H)-carboxamide] as the molecule, how does the “exposure amount AUC0-24 h and maximum drug concentration in blood Cmax compared with the reference compound” value [1] read?
**A.** significantly higher than the reference compound

**Q.** What about the AUC(0-t) [1] of the same molecule?
**A.** 6730 ng·h/mL

**Q.** What about the Cmax [1] of the same molecule?
**A.** 1400 ng/mL

**Q.** What about the IC50 [2] of the same molecule?
**A.** 2 nM

**Q.** What about the “inhibitory effect on FGFR4 compared with the reference compound” value [3] of the same molecule?
**A.** better inhibitory effect on FGFR4 than the reference compound

**Q.** Which results are given for `CSC[C@@H](C)Nc1cc(NC(=O)N2CCCc3cc(CN4CCCC4=O)c(C=O)nc32)ncc1C#N` [Compound 7, (R)—N-(5-cyano-4-((1-(methylthio)propan-2-yl)amino)pyridin-2-yl)-7-formyl-6-((2-oxopyrrolidine-1-yl)methyl)-3,4-dihydro-1,8-naphthyridine-1 (2H)-carboxamide]?
**A.** exposure amount AUC0-24 h and maximum drug concentration in blood Cmax compared with the reference compound [1]: significantly higher than the reference compound; AUC(0-t) [1]: 2850 ng·h/mL; Cmax [1]: 736 ng/mL; IC50 [2]: 1.5 nM; inhibitory effect on Hepatoma cell Hep3B compared with the reference compound [4]: better inhibitory effect; IC50 [4]: 0.011 µM; inhibitory effect on FGFR4 compared with the reference compound [3]: better inhibitory effect on FGFR4 than the reference compound

**Q.** For `CN1CCN(Cc2cc3c(nc2C=O)N(C(=O)Nc2cc(NCc4nccs4)c(C#N)cn2)CCC3)C(=O)C1` [Compound 56, N-(5-cyano-4-((thiazol-2-yl-methyl)amino)pyridin-2-yl)-7-formyl-6-((4-methyl-2-oxopiperazin-1-yl)methyl)-3,4-dihydro-1,8-naphthyridine-1(2H)-carboxamide], which “exposure amount AUC0-24 h and maximum drug concentration in blood Cmax compared with the reference compound” value [1] is on record?
**A.** significantly higher than the reference compound

**Q.** And the AUC(0-t) [1]?
**A.** 2010 ng·h/mL

**Q.** What about the Cmax [1] of the same molecule?
**A.** 548 ng/mL

**Q.** And the IC50 [2]?
**A.** 1.6 nM

**Q.** What about the “inhibitory effect on Hepatoma cell Hep3B compared with the reference compound” value [4] of the same molecule?
**A.** better inhibitory effect

**Q.** And the IC50 [4]?
**A.** 0.013 µM

**Q.** What about the “inhibitory effect on FGFR4 compared with the reference compound” value [3] of the same molecule?
**A.** better inhibitory effect on FGFR4 than the reference compound

**Q.** With `CN1CCN(Cc2cc3c(nc2C=O)N(C(=O)Nc2cc(NCCSC(F)(F)F)c(C#N)cn2)CCC3)C(=O)C1` [Compound 62, N-(5-cyano-4-((2-((trifluoromethyl)thio)ethyl)amino)pyridin-2-yl)-7-formyl-6-((4-methyl-2-oxopiperazin-1-yl)methyl)-3,4-dihydro-1,8-naphthyridine-1(2H)-carboxamide] as the molecule, how does the IC50 [2] read?
**A.** 1.7 nM

**Q.** What about the IC50 [4] of the same molecule?
**A.** 0.054 µM

**Q.** And the “inhibitory effect on FGFR4 compared with the reference compound” value [3]?
**A.** better inhibitory effect on FGFR4 than the reference compound

**Q.** Which IC50 [2] does the source give for `CSCCCNc1cc(NC(=O)N2CCCc3cc(CN4CCN(C)CC4=O)c(C=O)nc32)ncc1C#N` [Compound 64, N-(5-cyano-4-((3-(methylthio)propyl)amino)pyridin-2-yl)-7-formyl-6-((4-methyl-2-oxopiperazin-1-yl)methyl)-3,4-dihydro-1,8-naphthyridine-1(2H)-carboxamide] here?
**A.** 1.6 nM

**Q.** What about the “inhibitory effect on Hepatoma cell Hep3B compared with the reference compound” value [4] of the same molecule?
**A.** better inhibitory effect

**Q.** And the IC50 [4]?
**A.** 0.018 µM

**Q.** And the “inhibitory effect on FGFR4 compared with the reference compound” value [3]?
**A.** better inhibitory effect on FGFR4 than the reference compound

**Q.** What does the source list for `C[C@H](C[S+](C)[O-])Nc1cc(NC(=O)N2CCCc3cc(CN4CCN(C)CC4=O)c(C=O)nc32)ncc1C#N` (stereo partly drawn) [Compound 69, N-(5-cyano-4-(((2R)-1-(methylsulfinyl)propan-2-yl)amino)pyridin-2-yl)-7-formyl-6-((4-methyl-2-oxopiperazin-1-yl)methyl)-3,4-dihydro-1,8-naphthyridine-1(2H)-carboxamide]?
**A.** IC50 [2]: 2.1 nM; IC50 [4]: 0.067 µM; inhibitory effect on FGFR4 compared with the reference compound [3]: better inhibitory effect on FGFR4 than the reference compound

**Q.** What does the source list for `CN1CCN(Cc2cc3c(nc2C=O)N(C(=O)Nc2cc(NCCS(C)(=O)=O)c(C#N)cn2)CCC3)C(=O)C1.Cl` [Compound 72, N-(5-cyano-4-((2-(methyl-sulfonyl)ethyl)amino)pyridin-2-yl)-7-formyl-6-((4-methyl-2-oxopiperazin-1-yl)methyl)-3,4-dihydro-1,8-naphthyridine-1(2H)-carboxamide hydrochloride]?
**A.** IC50 [2]: 2 nM; IC50 [4]: 0.282 µM; inhibitory effect on FGFR4 compared with the reference compound [3]: better inhibitory effect on FGFR4 than the reference compound

**Q.** With `CSCCNc1cc(NC(=O)N2CCCc3cc(CN(C)C(=O)C4CCOCC4)c(C=O)nc32)ncc1C#N.Cl` [Compound 73, N-(5-cyano-4-((2-(methyhthio)ethyl)amino)pyridin-2-yl)-7-formyl-6-((N-methyltetrahydro-2H-pyran-4-carboxamido)methyl)-3,4-dihydro-1,8-naphthyridine-1(2H)-carboxamide hydrochloride] as the molecule, how does the IC50 [2] read?
**A.** 2.3 nM

**Q.** What about the IC50 [4] of the same molecule?
**A.** 0.039 µM

**Q.** And the “inhibitory effect on FGFR4 compared with the reference compound” value [3]?
**A.** better inhibitory effect on FGFR4 than the reference compound

**Q.** What does the source list for `CSCCNc1cc(NC(=O)N2CCCc3cc(CN(C)C(=O)[C@@H]4CCCO4)c(C=O)nc32)ncc1C#N.Cl` [Compound 75, (S)-N-(5-cyano-4-((2-(methylthio)ethyl)amino)pyridin-2-yl)-7-formyl-6-((N-methyltetrahydrofuran-2-carboxamido)methyl)-3,4-dihydro-1,8-naphthyridine-1(2H)-carboxamide hydrochloride]?
**A.** IC50 [2]: 1.8 nM; IC50 [4]: 0.028 µM; inhibitory effect on FGFR4 compared with the reference compound [3]: better inhibitory effect on FGFR4 than the reference compound

**Q.** For `CSCCNc1cc(NC(=O)N2CCCc3cc(CN(C)C(=O)C4CCOC4)c(C=O)nc32)ncc1C#N.Cl` (stereo not drawn) [Compound 76, N-(5-cyano-4-((2-(methylthio)ethyl)amino)pyridin-2-yl)-7-formyl-6-((N-methyltetrahydrofuran-3-carboxamido)methyl)-3,4-dihydro-1,8-naphthyridine-1(2H)-carboxamide hydrochloride], which IC50 [2] is on record?
**A.** 2.1 nM

**Q.** And the “inhibitory effect on Hepatoma cell Hep3B compared with the reference compound” value [4]?
**A.** better inhibitory effect

**Q.** And the IC50 [4]?
**A.** 0.006 µM

**Q.** What about the “inhibitory effect on FGFR4 compared with the reference compound” value [3] of the same molecule?
**A.** better inhibitory effect on FGFR4 than the reference compound

**Q.** Which results are given for `C[C@H](CS(C)(=O)=O)Nc1cc(NC(=O)N2CCCc3cc(CN4CCN(C)CC4=O)c(C=O)nc32)ncc1C#N` [Compound 83, N-(5-cyano-4-(((2R)-1-(methyl-sulfonyl)propan-2-yl)amino)pyridin-2-yl)-7-formyl-6-((4-methyl-2-oxopiperazin-1-yl)methyl)-3,4-dihydro-1,8-naphthyridine-1(2H)-carboxamide]?
**A.** IC50 [2]: 2.1 nM; IC50 [4]: 0.068 µM; inhibitory effect on FGFR4 compared with the reference compound [3]: better inhibitory effect on FGFR4 than the reference compound
